Experimental findings from patent US20100317688A1, “2-HETEROAROYLIMIDAZOL[1,2-a]PYRIDINE DERIVATIVES, PREPARATION AND THERAPEUTIC USE THEREOF” (SANOFI-AVENTIS, priority 2008, published 2010) are described below.

Structures are written as SMILES.

In this experiment the target is T1, murine Nurr1 receptor (Mus musculus, UniProt Q06219).
T1 construct: a cell line (N2A) endogenously expressing the murine Nurr1 receptor; host or cells: Neuro-2A (N2A) mouse neuroblastoma cells stably transfected with 8NBRE-luciferase
T1 sequence (Q06219 whole entry): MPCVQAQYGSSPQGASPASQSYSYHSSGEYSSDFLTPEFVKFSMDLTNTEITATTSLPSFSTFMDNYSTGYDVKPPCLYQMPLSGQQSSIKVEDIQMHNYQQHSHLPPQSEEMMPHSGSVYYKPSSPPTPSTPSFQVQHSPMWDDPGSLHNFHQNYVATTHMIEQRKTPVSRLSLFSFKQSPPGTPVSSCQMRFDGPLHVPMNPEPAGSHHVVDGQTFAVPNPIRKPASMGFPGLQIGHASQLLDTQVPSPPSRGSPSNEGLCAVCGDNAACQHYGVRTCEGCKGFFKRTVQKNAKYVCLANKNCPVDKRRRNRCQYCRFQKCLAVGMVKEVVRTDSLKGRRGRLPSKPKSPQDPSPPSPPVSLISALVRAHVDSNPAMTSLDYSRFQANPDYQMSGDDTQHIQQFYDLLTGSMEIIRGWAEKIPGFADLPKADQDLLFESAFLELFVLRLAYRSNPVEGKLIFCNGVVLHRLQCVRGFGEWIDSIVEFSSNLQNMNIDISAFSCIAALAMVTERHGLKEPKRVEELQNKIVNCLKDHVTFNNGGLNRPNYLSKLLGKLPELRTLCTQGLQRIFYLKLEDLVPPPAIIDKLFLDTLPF
The experiment in a line: In vitro activity on N2A cells (8NBRE-luciferase reporter). The class given is cell-based. Particulars: N2A cell line endogenously expressing Nurr1, stably transfected with NBRE-luciferase; 24 hours incubation. As to the method:
Evaluation of the In Vitro Activity on N2A Cells
The activity of the compounds according to the invention was evaluated on a cell line (N2A) endogenously expressing the murine Nurr1 receptor and stably transfected with the NOT binding response element (NBRE) coupled to the luciferase reporter gene. The EC50 values are between 0.01 and 1000 nM. The tests were performed according to the procedure described hereinbelow.
The cell line Neuro-2A is obtained from a standard commercial source (ATCC). The clone Neuro-2A was obtained from a spontaneous tumour originating from a strain of albino mice A by R. J Klebe et al. This line Neuro-2A is then stably transfected with 8NBRE-luciferase. The N2A-8NBRE cells are cultured to the point of confluence in 75 cm^2 culture flasks containing DMEM supplemented with 10% foetal calf serum, 4.5 g/L of glucose and 0.4 mg/ml of geneticin. After culturing for one week, the cells are recovered with 0.25% trypsin for 30 seconds and then resuspended in DMEM without phenol red, containing 4.5 g/L of glucose and 10% Hyclone defatted serum, and placed in white, transparent-based 96-well plates. The cells are deposited at a rate of 60 000 per well in 75 μL for 24 hours before adding the products. […] The plates are then measured in a microplate luminescence counter, after having been sealed with an adhesive film. […]

For `O=C(c1cn2cc(Cl)ccc2n1)c1cccs1` [Example 4, (6-Chloroimidazo[1,2-a]pyridin-2-yl)(thien-2-yl)methanone], the EC50 was determined as 4.7 nM.
